Molecules are shown by their SMILES.

Usually melting point stands for the temperature of the solid-liquid transition. In turn, `Cn1cc(C#N)c(=O)c(-c2cccc(C(F)(F)F)c2)c1` displayed a melting point of 228 to 229 °C.
In the case of `CCc1nc2c(C)cc(C)nc2n1Cc1ccc(C(=C(SC)c2nnn[nH]2)c2ccccc2)cc1`, the melting point lay in the range of 116 to 119 °C.
`C=C(C)c1ccc(O)c(-n2nc3ccccc3n2)c1` displayed a melting point of 124 °C.
Under `Cc1cn(C2CC(O)C(CO)S2)c(=O)[nH]c1=O` (stereo not given) stands 213 to 215 °C; under `FC(F)(F)c1cccc(N2CCN(Cc3n[nH]c4ccccc34)CC2)c1`, 78 to 80 °C.
In the case of `Cc1noc(NS(=O)(=O)c2ccc(-c3ccccc3)cc2)c1C`, the melting point fell in the range of 154 to 155 °C.
Compound `CC(Oc1ccc(Nc2cnc3cc(Cl)ccc3c2)cc1)C(=O)O` (stereo not given) displayed a melting point of 150 °C.
The compound `CC(=NNC(=O)OC1CC(C)CCC1C(C)C)c1ccncc1` (stereo not given) displayed a melting point of 188 °C.
The compound `COc1ccc(-c2ccccc2-c2ccc(S(C)(=O)=O)cc2)cc1F` yielded a melting point of 136 to 137 °C.
In the case of `COCCOCCOCCOCCOc1cc(NC(=O)OC(C)(C)C)c(NC(=O)CC(=O)c2cccc(C#N)c2)cc1C#Cc1ccccc1` it was 135 to 136 °C; in that of `O=C(c1ccccc1)c1cc2ccccc2o1`, 88 to 90 °C.
In the case of `N=C(NO)c1nn(-c2c(Cl)cc(C(F)(F)F)cc2Cl)c(C=NO)c1SC(F)(F)F` it was 68 to 72 °C; in that of `COc1cc2c(Cl)c(C#N)cnc2cc1OCc1ccccc1`, 282 to 284 °C.
In the case of `COc1ccc(C(=O)c2c(-c3ccccc3)sc3cc(OC)ccc23)cc1` it was 132 °C; in that of `CCc1csc2ccc3[nH]c4c(c3c12)CN(C)CC4`, 181 to 182 °C.
Turning to `O=C1N(Cc2ccccc2)C(O)C2CSC(c3ccccc3)N12` (mixture of isomers), the melting point lay in the range of 151 to 153 °C.
The compound `CCOC(=O)C1=C(C)Nc2ccccc2NC1c1cccc([N+](=O)[O-])c1` (stereo not given) displayed a melting point of 148 to 150 °C.
Under `CCOC(=O)CCCCCN(C)S(=O)(=O)C1=C(C)NC(C)=C(C(=O)OC)C1c1cccc([N+](=O)[O-])c1` (stereo not given) stands 83 to 86 °C; under `COC(=O)[C@H]1[C@H](NC(C)=O)C(=O)O[C@@H]1C`, 105 to 106 °C.
In the case of `CCN(CC)S(=O)(=O)c1ccccc1S(=O)(=O)N=C(Nc1nc(OC)nc(OC)n1)SC` it was 150 °C; in that of `CSC1c2ccccc2COc2ccc(C(=O)O)cc21` (stereo not given), 198 to 200 °C; in that of `Cc1ccc2oc(NC(CC3CCCCC3)c3ccccn3)nc2c1` (stereo not given), 80 to 86 °C.
Regarding `O=C(NCCCc1ccncc1)N1CCOCC1`, the melting point was 94 to 98 °C.
In the case of `CC(C)(O)c1cccc(-c2ccc3nc(-c4ccc(Cl)cc4)c(Cl)n3c2)c1` it was 172 to 173 °C.
In the case of `CCCSc1c[nH]nc1C1=CCCN(C)C1` it was 111 °C; in that of `COC(=O)C1=NNC(C)=C(C(=O)OC)C1c1ccc(C)cc1` (stereo not given), 180 °C; in that of `C[N+](C)(CCl)CCCC(=O)[O-]`, 100 to 101 °C.
Under `CN1CC[C@@H](c2c(O)cc(O)c3c(=O)cc(-c4cc(F)ccc4Br)oc23)[C@@H]1CO` stands 145 to 147 °C.
As for `Cc1cccc(-c2c(C(N)=O)n(C)c(=O)c3ncccc23)c1`, the melting point is greater than 310 °C.
In turn, `CCCS(=O)(=O)CC(=O)NNC(=O)N1Cc2ccccc2Oc2ccc(Cl)cc21` gave a melting point of 173 to 175 °C.
As to `CC(Cn1cncn1)(O[Si](C)(C)C)c1ccc(F)cc1F` (stereo not given), the melting point was 51 to 53 °C.
For the compound `COn1nnc2ccc(Cn3ccnc3)cc21`, the melting point was 132 °C.
In the case of `CC(CCl)CCCC(C)C1CCC2C3=CC=C4C(C)(C)C(O[Si](C)(C)C(C)(C)C)CCC4(C)C3CCC21C` (stereo not given) it was 114 to 116 °C; in that of `BrCc1ccc2c(-c3ccccc3)onc2c1`, 127 to 128 °C; in that of `CC1CCC2(C(=O)O)CCC3(C)C(=CCC4C5(C)CC(O)C(O)C(C)(CO)C5CCC43C)C2C1C` (stereo not given), 300 to 310 °C.

(Values after a melting point compilation (Tetko et al.; mined from patent text by program, amines drawn as free bases though some values may be those of a salt).)
